Measured values as given in patent publication US10212956B2, “Compositions and methods of treating edible matter and substrates therefor” (PIMI AGRO CLEANTECH LTD., priority 2010, dated 2019).

How the values were obtained:
[1] = system: Aspergillus niger (ATCC 16404); test: BS EN 1650:1998 quantitative suspension test, fungicidal activity; format: cell-based; conditions: 300 ppm; same test conditions (1 minute, 20° C., dirty conditions)
Method: (§1) This is a quantitative suspension test to evaluate the activity of chemical disinfectants and antiseptics used in food, industrial, domestic and institutional areas against fungi, yeasts and molds. The same composition tested in Example 22 was tested in this case as well.
(§2) As is known in the art, EN 1650 specifies a test method and the minimum requirements for anti-fungal, anti-yeast and anti-mold activity of chemical disinfectant and antiseptic products that form a homogeneous, physically stable preparation in hard water and that are used in food, industrial, domestic and institutional areas, excluding areas and situations where disinfection is medically indicated and excluding products used on living tissues except those for hand hygiene in the above-considered areas. […]
(§3) A test suspension of yeast cells and/or mold spores in a solution of interfering substance (bovine albumin, 3 g/l) was added to a prepared sample of the product under test diluted in hard water. […] (If a suitable neutralizer could be found, membrane filtration was used.) The number of surviving fungi, yeast cells or mold spores in each sample was determined and the reduction in viable counts was calculated. […]

[2] = system: Penecillium w.t. (wild type); test: as above; format: cell-based; conditions: 300 ppm; same test conditions (1 minute, 20° C., dirty conditions)
Method: as §1, §2, §3

mandarin oranges = test: Citrus decay during storage at 2° C.; format: in vivo; conditions: Mandarin Orange
Method: Approximately 1000 mandarin oranges were treated shortly after harvest with compositions comprising performic acid, water, or an Imazalil composition, and then stored at 2° C. After 22 days, the number of rotten fruits, and the percent decay were assessed. A second trial was conducted with ten tons of mandarin oranges treated with a performic acid composition or Imazalil and stored and then stored at 2° C. The study was repeated with Red Grapefruit. The compositions comprising performic acid and the manner of applying the compositions varied throughout the course of the study within the parameters summarized in Table 6.
The compositions were applied to the citrus at room temperature with a fine spray of the performic acid containing composition and then treated either a) with a drain wash of water (either cold or heated to 55° C.) with a 1:9 dilution in tap water of the composition without formic acid, orb) with a drain wash of water (either cold or heated to 55° C.), followed by a fine spray at room temperature with a formulation identical to the performic acid formulation but without formic acid. Thus, the methods of applying in this study were: • a. Application of the performic acid containing composition at room temperature with fine spray, then treatment with a drain wash of cold water, and then a fine spray at room temperature with a formula without formic acid (i.e. without the performic acid source) • b. Application of the performic acid containing composition at room temperature with fine spray, then treatment with a drain wash of heated water (to about 55° C.), and then a fine spray at room temperature with a formula without formic acid • c. Application of the performic acid containing composition at room temperature with fine spray and then treatment with a drain wash of cold water that contained the formula at a diluted state at a ratio of 1:9 but without formic acid • d. Application of the performic acid containing composition at room temperature with fine spray and then treatment with a drain wash of heated water (to about 55° C.) that contained the formula at a diluted state at a ratio of 1:9 but without formic acid
All treatments were conducted at a total rate of 5-20 liter of formula per ton of different Citrus varieties.

SMILES | compliance with EN 1650 [1] | compliance with EN 1650 [2] | % Decay (mandarin oranges; 22 days after treatment) [%] | No. Rotten Fruits (mandarin oranges; 22 days after treatment) | % Decay (mandarin oranges; 46 days after treatment) [%] | No. Rotten Fruits (mandarin oranges; 46 days after treatment)
CC(=O)OO [peracetic acid] | did not meet the standard | did not meet the standard |  |  |  | 
C=CCOC(Cn1ccnc1)c1ccc(Cl)cc1Cl (stereo not drawn) [Imazalil] |  |  | 6.8 | 59 | 1.75 | 125
